Test results from PubChem BioAssay AID2790 (The Scripps Research Institute Molecular Screening Center, 2010).
Activity calls are given as the source filed them.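 How the source made its calls: active means IC50 at or below 10 micromolar; inactive means IC50 above 10 micromolar.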

target: Bcl-2-like protein 1 (Homo sapiens) (UniProt Q07817); experiment: Bcl-xL inhibition potency, Bim BH3 displacement, dose response, counter-screen for MCL1-BIM inhibitor project, biochemical, fluorescence polarization, powder samples (AID 2790); details: GST-BCL-XL / FITC-Bim BH3 fluorescence polarization
Sequence (Q07817 whole entry, looked up): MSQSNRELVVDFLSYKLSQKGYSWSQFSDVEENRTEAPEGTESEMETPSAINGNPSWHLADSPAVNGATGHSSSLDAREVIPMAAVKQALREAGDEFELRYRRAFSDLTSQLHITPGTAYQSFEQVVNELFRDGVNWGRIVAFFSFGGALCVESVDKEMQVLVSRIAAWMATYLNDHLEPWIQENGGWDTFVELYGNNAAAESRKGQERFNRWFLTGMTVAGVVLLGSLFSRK

IC50 | Compound
> 109 µM (inactive) | O=C(NN=Cc1cccc(F)c1)c1cc(-c2ccco2)nc2ccccc12
> 109 µM (inactive) | O=C(NN=Cc1ccc(-c2ccc(S(=O)(=O)Nc3ncccn3)cc2)o1)c1cc2ccccc2cc1O
> 109 µM (inactive) | Cc1ccc(C(=O)O)cc1-c1ccc(/C=C2\SC(=O)N(CC(=O)Nc3ccc4c(c3)OCO4)C2=O)o1
> 109 µM (inactive) | Nc1ccc(C(=O)NN=Cc2cc(N=Nc3cccc4ccccc34)ccc2O)cc1
> 109 µM (inactive) | COC(=O)c1ccccc1NCc1cc(=O)oc2cc(O)c(O)cc12
> 109 µM (inactive) | CCOc1ccc(NC(=O)c2cccc(-n3cccc3)c2)cc1S(=O)(=O)N1CCOCC1

The next lines start with the compound.

Compound | IC50
COc1ccc(-n2cccc2/C=C2\C(=N)N3N=C(c4ccco4)SC3=NC2=O)cc1 | > 109 µM (inactive)
COc1ccc(NC(=O)CN(C)C(=O)c2cc3c(s2)CCC3)cc1 | > 109 µM (inactive)
CCc1sc(C(C2C(=O)CC(C)(C)CC2=O)C2C(=O)CC(C)(C)CC2=O)cc1[N+](=O)[O-] | > 109 µM (inactive)
C=CCN=c1scc(-c2ccco2)n1/N=C/c1ccc(O)c(O)c1O | > 109 µM (inactive)
Cc1cccc(NC(=O)CNC(=O)c2cccc(-n3cccc3)c2)c1C | > 109 µM (inactive)
O=C1COc2ccc(C(=O)COC(=O)/C=C/c3ccc(Br)o3)cc2N1 | > 109 µM (inactive)
C=CCn1c(SCC(=O)c2ccc(O)c(O)c2)nnc1-c1cccnc1 | inactive
COc1ccc(Cc2nnc(NC(=O)Cc3cccs3)s2)cc1OC | > 109 µM (inactive)
c1coc(-c2nc(-c3ccco3)c(-c3ccco3)nc2-c2ccco2)c1 | > 109 µM (inactive)
